This note sets out measurements from patent US12673945B2, “3-((8-((1H-pyrazol-4-yl)amino)imidazo[1,2-a]pyridin-3-yl)ethinyl)-n-phenylbenzamide derivative, method for preparing same, and pharmaceutical composition containing same as active ingredient for prevention or treatment of cancer” (DAEGU-GYEONGBUK MEDICAL INNOVATION FOUNDATION, priority 2020, dated 2026).

In general, AUC(0-t) refers to exposure summed from dosing to a finite time, without extrapolation to infinity. A lower AUC(0-t) goes with less exposure. For orientation: Cmax means the maximum level reached in the sampled fluid or tissue. For orientation: half-life means the time in which the quantity being followed falls by half. Lower therefore signals rapid decline. As a reminder, the GI50 is the concentration at which growth is held to half of that of the control.

Molecules are shown by their SMILES.

Data set [1] can be described thus: oral pharmacokinetic test. Type of data set: in vivo, ICR mice. To be noted: ICR, mouse, plasma, 10 mg/kg, 10 mg/Kg PO, vehicle A (NMP:PEG400=5:95). The procedure: (§1) To evaluate the pharmacokinetic properties in vivo, oral pharmacokinetic test was performed with the compounds of Comparative Examples 1 and 4 and Examples 1 and 4 using mice and rats, and the PK parameters are shown in Table 10.
(§2) ICR mice (6-7 weeks old) and SD rats (6-7 weeks old) were used for the test. The fasted group was fasted about 16 hours before oral administration, and the fed group was fasted about 4 hours before oral administration. The test drug for oral administration was used by dissolving the drug in a vehicle at a concentration of 1 mg/mL for use, and blood samples were collected (time point: 0.25, 0.5, 1, 2, 4, 8, 12, 24, 32, n=3) from the heart (mouse, 500 μL/time point) or jugular vein (rat, 120 μL/time point). Blood was centrifuged at 12,000 G at 4° C. for 2 minutes to separate plasma, and stored at −80° C. until analysis. • Vehicle A (NMP:PEG400=5:95) • Vehicle B (0.5% methyl cellulose) 6-2. Sampling and Pretreatment
(§3) To 20 μl of plasma, 180 μl of acetonitrile (including internal standard) was added. The mixture was vortexed and centrifuged for 5 minutes at 15,000 rpm at 4° C. The supernatant obtained after centrifugation was analyzed by LC-MS/MS.
(§4) PK parameters were calculated with a non-compartmental analysis model using Phoenix WinNonlin 6.4 version (Pharsight, USA) program.

Data set [2] in a line: body weight in blood cancer mouse model. Type of data set: in vivo, nude mice. The settings on record: 25 mg/kg oral once a day for 10 days. The procedure:
A total of 50 male 5-week-old nude mice (14-17 g) were obtained from Orient Bio Inc. (322, Galmachi-ro, Jungwon-gu, Seongnam-si, Gyeonggi-do, Korea). After the mice were adapted to an animal facility for 1 week, the Luc_Ba/F3 T315I-Bcr-Abl cell line emitting luciferase was transplanted into the caudal vein at the density of 5×10^6/animal. Group separation was performed 3 days after the cell line transplantation. On the day of the group separation, 10 mice were randomly assigned to each group of 5 groups so that the luminescence values were equal after luminescence measurement using IVIS spectrum-CT optical imaging equipment.
5 groups: control (vehicle, 0.5% methylcellulose solution), ponatinib (25 mg/kg), Example 1 (25 mg/kg), Example 1 (50 mg/kg), Example 1 (100 mg/kg).
After the group separation, the compound of Example 1, ponatinib, and a vehicle were orally administered at intervals of once a day for 10 days in order to evaluate the therapeutic efficacy of the drug. The drug effect was confirmed through optical imaging, and the confirmation was carried out before the drug administration (day 0) and on days 4, 11, 18 and 21 after the administration. In addition, the body weight and survival rate of each experimental group were monitored.

Data set [3] deals with Luc_Ba/F3 T315I-Bcr-Abl cell line. Description: in vivo pharmacological activity, blood cancer mouse model. Further details: species or system nude mice. The settings on record: 25 mg/kg oral once a day for 10 days; vehicle group: day 21. As to the method:
After the mice were adapted to an animal facility for 1 week, the Luc_Ba/F3 T315I-Bcr-Abl cell line emitting luciferase was transplanted into the caudal vein at the density of 5×10^6/animal. Group separation was performed 3 days after the cell line transplantation. On the day of the group separation, 10 mice were randomly assigned to each group of 5 groups so that the luminescence values were equal after luminescence measurement using IVIS spectrum-CT optical imaging equipment.
In addition, the body weight and survival rate of each experimental group were monitored.
Statistical analysis was performed using GraphPad Prism 8, and the statistical significance of the survival rate was confirmed using unpaired t test and log-rank (Mantel-Cox) test.

The nature of data set [4]: oral pharmacokinetic test. Type of data set: in vivo, SD rats. The settings on record: SD, plasma; rat, 10 mg/Kg PO, vehicle A (NMP:PEG400=5:95). As to the method: as §1, §2, §3, §4
The test system of data set [5] is Parental (Ba/F3). Description: Ba/F3 cell proliferation inhibition. Type of data set: cell-based. The settings on record: BaF3; 72 hours, Cell Counting Kit-8. Put shortly: (§5)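 Parental and T315I-Bcr-Abl Ba/F3 cells, 1×10^4 per well, exposed 72 h at 37 °C to nine 3-fold dilutions, final 0 to 10 μM. Viability by CCK-8 after 2 h, absorbance 450 nm; GI50 fitted from percent of vehicle-treated cells.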
(Tetrazolium dyes change colour on reduction, which living cells bring about.)

The subject of data set [6] is T315I-Bcr-Abl (Ba/F3). Description: Ba/F3 cell proliferation inhibition. Type of data set: cell-based. The settings on record: BaF3; 72 hours, Cell Counting Kit-8. Put shortly: as §5
For data set [7], the system named is TCCS cells. Description: human CML cell proliferation inhibition. Type of data set: cell-based. To be noted: 72 hours, Cell Counting Kit-8. The method in brief:
(§6)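 Seed 1×10^4 cells/well; add compound, 9 concentrations by 5-fold dilution, final 0–10 μM, or DMSO; incubate 72 h, 37 °C, CO2; add CCK-8 for 2 h; read A450; normalise to vehicle; fit GI50.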

Data set [8] deals with T315I-TCCS cells. Description: human CML cell proliferation inhibition. Type of data set: cell-based. To be noted: 72 hours, Cell Counting Kit-8. Put shortly: as §6
For data set [9], the system named is KOPM28 cells. Description: human CML cell proliferation inhibition. Type of data set: cell-based. The settings on record: 72 hours, Cell Counting Kit-8. The method in brief: as §6
Data set [10] has as its system T315I-KOPM28 cells. Description: human CML cell proliferation inhibition. Type of data set: cell-based. To be noted: 72 hours, Cell Counting Kit-8. Put shortly:
as §6

In data set [1], `Cc1cn(-c2cc(NC(=O)c3ccc(C)c(C#Cc4cnc5c(Nc6cnn(C)c6)cccn45)c3)cc(C(F)(F)F)c2)cn1` [Comparative Example 1, 4-methyl-N-(3-(4-methyl-1H-imidazol-1-yl)-5-(trifluoromethyl)phenyl)-3-((8-((1-methyl-1H-pyrazol-4-yl)amino)imidazo[1,2-a]pyridin-3-yl)ethynyl)benzamide, reference compound] showed an AUC(0-t) of 7.73 µg·h/mL, a Cmax of 0.81 µg/mL and a half-life of 3.5 h.
With `Cc1ccc(C(=O)Nc2ccc(CN3CCN(C)CC3)c(C(F)(F)F)c2)cc1C#Cc1cnc2cccnn12` [ponatinib, reference compound], the “body weight change during the experimental period (FIG. 4)” value in data set [2] is “no significant body weight change”. Moreover, the “day after the administration on which all subjects died (FIG. 3)” value in data set [3] amounted to 35 days.
In data set [1], `Cc1cn(-c2cc(NC(=O)c3ccc(C)c(C#Cc4cnc5c(Nc6cnn(C)c6)cccn45)c3)cc(C(C)(C)C#N)c2)cn1` [Comparative Example 4, N-(3-(2-cyanopropan-2-yl)-5-(4-methyl-1H-imidazol-1-yl)phenyl)-4-methyl-3-((8-((1-methyl-1H-pyrazol-4-yl)amino)imidazo[1,2-a]pyridin-3-yl)ethynyl)benzamide, reference compound] had an exposure AUC(0-t) of 12.6 µg·h/mL, a Cmax of 3.84 µg/mL and a half-life of 3.3 h. Moreover, in [4], the AUC(0-t) is 2.96 µg·h/mL and the Cmax came out at 0.169 µg/mL.
As to `Cc1cc(F)c(C(=O)Nc2cc(CN3CCN(C)C(=O)C3)cc(C(C)(C)C#N)c2)cc1C#Cc1cnc2c(Nc3cnn(C)c3)cccn12` [Example 35, N-(3-(2-cyanopropan-2-yl)-5-((4-methyl-3-oxopiperazin-1-yl)methyl)phenyl)-2-fluoro-4-methyl-5-((8-((1-methyl-1H-pyrazol-4-yl)amino)imidazo[1,2-a]pyridin-3-yl)ethynyl)benzamide], the GI50 in data set [5] is 0.5 to 5 µM; in data set [6] it was 0.05 to 0.5 µM; in data set [7], less than 0.01 µM; in [8], more than 0.1 µM; in [9], less than 0.01 µM; in data set [10] it was more than 0.1 µM.
For the molecule `Cc1cc(F)c(C(=O)Nc2ccc(Cn3ccnc3)c(C(C)(C)C#N)c2)cc1C#Cc1cnc2c(Nc3cnn(C)c3)cccn12` [Example 46, N-(4-((1H-imidazol-1-yl)methyl)-3-(2-cyanopropan-2-yl)phenyl)-2-fluoro-4-methyl-5-((8-((1-methyl-1H-pyrazol-4-yl)amino)imidazo[1,2-a]pyridin-3-yl)ethynyl)benzamide], the GI50 in data set [5] is more than 5 µM; in [6], 0.05 to 0.5 µM; in data set [7] it was less than 0.01 µM; in [8], more than 0.1 µM; in data set [9] it was less than 0.01 µM; in data set [10], more than 0.1 µM.
Consider `Cc1cn(-c2cc(NC(=O)c3cc(F)c(C)c(C#Cc4cnc5c(Nc6cnn(C)c6)cccn45)c3)cc(C(C)(C)C#N)c2)cn1` [Example 2, N-(3-(2-cyanopropan-2-yl)-5-(4-methyl-1H-imidazol-1-yl)phenyl)-3-fluoro-4-methyl-5-((8-((1-methyl-1H-pyrazol-4-yl)amino)imidazo[1,2-a]pyridin-3-yl)ethynyl)benzamide], for which the GI50 in data set [5] is more than 5 µM; in data set [6] it was less than 0.05 µM; in data set [7], less than 0.01 µM; in data set [8], less than 0.01 µM; in [9], less than 0.01 µM; in [10], 0.1 µM.
As for `Cc1cc(F)c(C(=O)Nc2cc(Oc3ccncc3)cc(C(F)(F)F)c2)cc1C#Cc1cnc2c(Nc3cn[nH]c3)cccn12` [Example 101, 5-((8-((1H-pyrazol-4-yl)amino)imidazo[1,2-a]pyridin-3-yl)ethynyl)-2-fluoro-4-methyl-N-(3-(pyridin-4-yloxy)-5-(trifluoromethyl)phenyl)benzamide], the 50% growth inhibitory concentration (GI50) in data set [5] was more than 5 µM; in [6], less than 0.05 µM; in data set [7], less than 0.01 µM; in data set [8] it was less than 0.01 µM; in data set [9] it was less than 0.01 µM; in data set [10] it was 0.1 µM.
Take `Cc1cc(F)c(C(=O)Nc2cc(Cn3cncn3)cc(C(F)(F)F)c2)cc1C#Cc1cnc2c(Nc3cn[nH]c3)cccn12` [Example 108, N-(3-((1H-1,2,4-triazol-1-yl)methyl)-5-(trifluoromethyl)phenyl)-5-((8-((1H-pyrazol-4-yl)amino)imidazo[1,2-a]pyridin-3-yl)ethynyl)-2-fluoro-4-methylbenzamide]: the GI50 in [5] was more than 5 µM; in data set [6], 0.05 to 0.5 µM; in data set [7] it was less than 0.01 µM; in [8], 0.1 µM; in data set [9], less than 0.01 µM; in [10], more than 0.1 µM.
With `Cc1cc(F)c(C(=O)Nc2cc(N3CCN(C)C(=O)C3)cc(C(C)(C)C#N)c2)cc1C#Cc1cnc2c(Nc3cn[nH]c3)cccn12` [Example 82, 5-((8-((1H-pyrazol-4-yl)amino)imidazo[1,2-a]pyridin-3-yl)ethynyl)-N-(3-(2-cyanopropan-2-yl)-5-(4-methyl-3-oxopiperazin-1-yl)phenyl)-2-fluoro-4-methylbenzamide], the 50% growth inhibitory concentration (GI50) in data set [5] is 0.5 to 5 µM; in data set [6], 0.05 to 0.5 µM; in data set [7], less than 0.01 µM; in [8], 0.1 µM; in data set [9], less than 0.01 µM; in [10], more than 0.1 µM.
For the molecule `Cc1ccc(C(=O)Nc2cc(Oc3ccncc3)cc(C(F)(F)F)c2)c(F)c1C#Cc1cnc2c(Nc3cnn(C)c3)cccn12` [Example 9, 2-fluoro-4-methyl-3-((8-((1-methyl-1H-pyrazol-4-yl)amino)imidazo[1,2-a]pyridin-3-yl)ethynyl)-N-(3-(pyridin-4-yloxy)-5-(trifluoromethyl)phenyl)benzamide], the 50% growth inhibitory concentration (GI50) in data set [5] is more than 5 µM; in data set [6], less than 0.05 µM; in data set [7], less than 0.01 µM; in [8], 0.1 µM; in [9], less than 0.01 µM; in [10], 0.1 µM.
Consider `Cc1cn(-c2cc(NC(=O)c3cc(C#Cc4cnc5c(Nc6cnn(C)c6)cccn45)c(C)cc3Cl)cc(C(F)(F)F)c2)cn1` [Example 14, 2-chloro-4-methyl-N-(3-(4-methyl-1H-imidazol-1-yl)-5-(trifluoromethyl)phenyl)-5-((8-((1-methyl-1H-pyrazol-4-yl)amino)imidazo[1,2-a]pyridin-3-yl)ethynyl)benzamide], for which the concentration for 50% growth inhibition (GI50) is more than 5 µM in [5]; less than 0.05 µM in data set [6]; less than 0.01 µM in data set [7]; 0.1 µM in data set [8]; less than 0.01 µM in data set [9]; 0.1 µM in [10].
